Assay results as given in patent US9023821B2, “Use of MicroRNA for treating diseases associated with a dysfunction of the cilia in multiciliated epithelial cells” (Centre National de la Recherche Scientifique, priority 2009, dated 2015).

Key:
[1] = system: basal cells and pyramidal cells of the airway epithelium; assay: miRNA expression in sorted basal cells versus pyramidal cells (ciliated + secretory), HTS and Agilent chips; set-up: species or system human; conditions: for Modulation of expression of the miRNAs in pyramidal cells (323(−)) relative to basal cells 323(+): HTS and Agilent chips; for Intensity of the level of expression in log2 in pyramidal cells (323(−)): pyramidal cells (ciliated + secretory)
How it was run: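 FACS on CD151 and tissue factor: double-positive = basal, double-negative = ciliated + mucus cells; DAPI, doublets, aggregates excluded; sort at 5000 events/s. Purity checked by cytometry/immunocytochemistry. miRNA by Agilent array or HTS on total RNA. Source: nasal polyps/conchae, 3 donors.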

[2] = system: human airway epithelial cells (HAECs); assay: High-throughput sequencing (HTS) of miRNAs at four stages of differentiation of HAECs; conditions: for Modulation (ratio of the level of intensity of expression in log2 in two stages of differentiation) measured by high-throughput sequencing, D7 − D0 / Modulation (ratio of the level of intensity of expression in log2 in two stages of differentiation) measured by high-throughput sequencing, FC − D7 / Modulation (ratio of the level of intensity of expression in log2 in two stages of differentiation) measured by high-throughput sequencing, WD − D0 / Modulation (ratio of the level of intensity of expression in log2 in two stages of differentiation) measured by high-throughput sequencing, WD − FC / Level of intensity of expression in log2 measured by high-throughput sequencing, D0 / Level of intensity of expression in log2 measured by high-throughput sequencing, D7 / Level of intensity of expression in log2 measured by high-throughput sequencing, FC / Level of intensity of expression in log2 measured by high-throughput sequencing, WD: Table VI; for Level of intensity of expression in log2 At the differentiated stage (WD) measured in HTS: healthy human airway epithelial tissue; for Level of intensity of expression in log2 measured by high-throughput sequencing, D0: stage D0; for Level of intensity of expression in log2 measured by high-throughput sequencing, D7: stage D7; for Level of intensity of expression in log2 measured by high-throughput sequencing, FC: stage FC; for Level of intensity of expression in log2 At the differentiated stage (WD) measured in HTS / Level of intensity of expression in log2 measured by high-throughput sequencing, WD: stage WD
How it was run: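 ALI cultures sampled at day 0, day 7, first-cilia stage (~14 d) and full differentiation (~21 d). Trizol lysis, column purification retaining small RNAs. Adaptor ligation, RT at 42° C for 30 min, PCR, gel selection of ~105-150 base products.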

[3] = system: human airway epithelial cells (HAECs); assay: Agilent miRNA chips, miRNA expression at four stages of differentiation of HAECs; conditions: for Modulation (ratio of the level of intensity of expression in log2 in two stages of differentiation) measured with the Agilent chips, D7 − D0 / Modulation (ratio of the level of intensity of expression in log2 in two stages of differentiation) measured with the Agilent chips, FC − D7 / Modulation (ratio of the level of intensity of expression in log2 in two stages of differentiation) measured with the Agilent chips, WD − D0 / Modulation (ratio of the level of intensity of expression in log2 in two stages of differentiation) measured with the Agilent chips, WD − FC / Level of intensity of expression in log2 measured with the Agilent chips, D0 / Level of intensity of expression in log2 measured with the Agilent chips, D7 / Level of intensity of expression in log2 measured with the Agilent chips, FC / Level of intensity of expression in log2 measured with the Agilent chips, WD: Table VI; for Level of intensity of expression in log2 measured with the Agilent chips, D0: stage D0; for Level of intensity of expression in log2 measured with the Agilent chips, D7: stage D7; for Level of intensity of expression in log2 measured with the Agilent chips, FC: stage FC; for Level of intensity of expression in log2 measured with the Agilent chips, WD: stage WD; for Modulation (ratio of the level of intensity of expression in log2 at two stages of differentiation), FC − D7 / Modulation (ratio of the level of intensity of expression in log2 at two stages of differentiation), WD − FC: Agilent miRNA chips, Table V
How it was run: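 Expression was profiled on Human miRNA Microarray v2 chips covering 866 human and 89 human viral miRNAs from miRBase v12.0. Labelled HAEC RNA came from the same patients used for sequencing and was hybridized per kit protocol. Chip and sequencing results were compared.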

Substance	Modulation of expression of the miRNAs in pyramidal cells (323(−)) relative to basal cells 323(+) [1]	Intensity of the level of expression in log2 in basal cells (323(+)) [1] [log2]	Intensity of the level of expression in log2 in pyramidal cells (323(−)) [1] [log2]	Modulation (ratio of the level of intensity of expression in log2 in two stages of differentiation) measured by high-throughput sequencing, D7 − D0 [2] [log2]	Modulation (ratio of the level of intensity of expression in log2 in two stages of differentiation) measured by high-throughput sequencing, FC − D7 [2] [log2]	Modulation (ratio of the level of intensity of expression in log2 in two stages of differentiation) measured by high-throughput sequencing, WD − D0 [2] [log2]	Modulation (ratio of the level of intensity of expression in log2 in two stages of differentiation) measured by high-throughput sequencing, WD − FC [2] [log2]	Level of intensity of expression in log2 At the differentiated stage (WD) measured in HTS [2] [log2]	Level of intensity of expression in log2 measured by high-throughput sequencing, D0 [2] [log2]	Level of intensity of expression in log2 measured by high-throughput sequencing, D7 [2] [log2]	Level of intensity of expression in log2 measured by high-throughput sequencing, FC [2] [log2]	Level of intensity of expression in log2 measured by high-throughput sequencing, WD [2] [log2]	Modulation (ratio of the level of intensity of expression in log2 in two stages of differentiation) measured with the Agilent chips, D7 − D0 [3] [log2]	Modulation (ratio of the level of intensity of expression in log2 in two stages of differentiation) measured with the Agilent chips, FC − D7 [3] [log2]	Modulation (ratio of the level of intensity of expression in log2 in two stages of differentiation) measured with the Agilent chips, WD − D0 [3] [log2]	Modulation (ratio of the level of intensity of expression in log2 in two stages of differentiation) measured with the Agilent chips, WD − FC [3] [log2]	Level of intensity of expression in log2 measured with the Agilent chips, D0 [3] [log2]	Level of intensity of expression in log2 measured with the Agilent chips, D7 [3] [log2]	Level of intensity of expression in log2 measured with the Agilent chips, FC [3] [log2]	Level of intensity of expression in log2 measured with the Agilent chips, WD [3] [log2]	further results
hsa-miR-210: human miRNA, SEQ ID No. 22	−2.03	6.60	4.57	−0.96	−0.74	−1.80	−0.10	9.29	12.29	11.33	10.60	10.49	0.18	−0.63	−0.56	−0.11	9.08	9.25	8.63	8.52	Modulation (ratio of the level of intensity of expression in log2 in two stages of differentiation), D7 − D0 ([2]; HTS): −0.96 log2; Modulation (ratio of the level of intensity of expression in log2 in two stages of differentiation), FC − D7 ([2]; HTS): −0.74 log2; Modulation (ratio of the level of intensity of expression in log2 in two stages of differentiation), WD − FC ([2]; HTS): −0.10 log2; Abundance (%), D0 ([2]; HTS, ALI-D0): 1.10%; Abundance (%), D7 ([2]; HTS, ALI-D7): 0.57%; Abundance (%), FC ([2]; HTS, ALI-FC): 0.33%; Abundance (%), WD ([2]; HTS, ALI-WD): 0.23%
hsa-miR-224: human miRNA, SEQ ID No. 24 (CAAGUCACUAGUGGUUCCGUU; expressed or natural sequence; listed as Homo sapiens)	−2.84	3.65	0.82	1.52	−0.72	1.63	0.83	14.10	9.59	11.12	10.39	11.22	2.55	−0.87	1.68	0.00	6.84	9.40	8.52	8.52	Modulation (ratio of the level of intensity of expression in log2 at two stages of differentiation), FC − D7 [3]: −0.87 log2; Modulation (ratio of the level of intensity of expression in log2 at two stages of differentiation), WD − FC [3]: 0.00 log2
hsa-miR-365: human miRNA, SEQ ID No. 41 (UAAUGCCCCUAAAAAUCCUUAU; expressed or natural sequence; listed as Homo sapiens)	−0.99	4.83	3.84	−0.39	0.00	−0.39	0.00	2.78	0.41	0.01	0.01	0.01	−0.02	−1.21	−1.18	0.05	8.44	8.41	7.21	7.25	Modulation (ratio of the level of intensity of expression in log2 at two stages of differentiation), FC − D7 [3]: −1.21 log2; Modulation (ratio of the level of intensity of expression in log2 at two stages of differentiation), WD − FC [3]: 0.05 log2
